Assays:
Assay in all cases: Post-emergence test on weeds (greenhouse, spray at 2-3 leaf stage)
Assay type in all cases: in vivo
Design in all cases: key: Level 10: completely dead; Level 9: growth control rate greater than or equal to 90% and less than 100%; Level 8: growth control rate greater than or equal to 80% and less than 90%; Level 7: growth control rate greater than or equal to 70% and less than 80%; Level 6: growth control rate greater than or equal to 60% and less than 70%; Level 5: growth control rate greater than or equal to 50% and less than 60%; Level 4: growth control rate greater than or equal to 40% and less than 50%; Level 3: growth control rate greater than or equal to 30% and less than 40%; Level 2: growth control rate greater than or equal to 20% and less than 30%; Level 1: growth control rate less than 20%; Level 0: no effect
Conditions in all cases: 3 weeks after application
Abutilon theophrasti = test system: Abutilon theophrasti
Summary of the method: (§1)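 Pot-grown plants were spray-tower treated two weeks after sowing with compound in acetone/Tween 80 plus 1.5 L/ha methyl oleate EC, at rates from 500 to 7.5 g a.i./ha. Fresh-weight growth control was scored 0–10 after 3 weeks in the greenhouse, averaged over triplicates.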

Amaranthus retroflexus = test system: Amaranthus retroflexus
Summary of the method: as §1

Digitaria sanguinalis = test system: Digitaria sanguinalis
Summary of the method: as §1

Echinochloa crus-galli = test system: Echinochloa crus-galli
Summary of the method: as §1

Setaria viridis = test system: Setaria viridis
Summary of the method: as §1

Veronica polita = test system: Veronica polita
Summary of the method: as §1

CCOC(=O)C1ON=C(c2cc(-c3ncc(C(F)(F)F)cc3Cl)c(F)cc2Cl)O1 (stereo not drawn) [Compound 26]
10: activity level (fresh weight growth control rate), Abutilon theophrasti (Abutilon theophrasti; 60 g a.i./ha) | activity level (fresh weight growth control rate), Amaranthus retroflexus (Amaranthus retroflexus; 60 g a.i./ha) | activity level (fresh weight growth control rate), Digitaria sanguinalis (Digitaria sanguinalis; 60 g a.i./ha) | activity level (fresh weight growth control rate), Echinochloa crus-galli (Echinochloa crus-galli; 60 g a.i./ha) | activity level (fresh weight growth control rate), Setaria viridis (Setaria viridis; 60 g a.i./ha) | activity level (fresh weight growth control rate), Veronica polita (Veronica polita; 60 g a.i./ha)

CCOC(=O)C1(C)ON=C(c2cc(-c3ccc(C(F)(F)F)cn3)c(F)cc2Cl)O1 (stereo not drawn) [Compound 29]
10: activity level (fresh weight growth control rate), Abutilon theophrasti (Abutilon theophrasti; 60 g a.i./ha) | activity level (fresh weight growth control rate), Amaranthus retroflexus (Amaranthus retroflexus; 60 g a.i./ha) | activity level (fresh weight growth control rate), Digitaria sanguinalis (Digitaria sanguinalis; 60 g a.i./ha) | activity level (fresh weight growth control rate), Echinochloa crus-galli (Echinochloa crus-galli; 60 g a.i./ha) | activity level (fresh weight growth control rate), Setaria viridis (Setaria viridis; 60 g a.i./ha) | activity level (fresh weight growth control rate), Veronica polita (Veronica polita; 60 g a.i./ha)

CCOC(=O)C1(C)ON=C(c2cc(-c3ncc(C(F)(F)F)cc3C)c(F)cc2Cl)O1 (stereo not drawn) [Compound 30]
10: activity level (fresh weight growth control rate), Abutilon theophrasti (Abutilon theophrasti; 60 g a.i./ha) | activity level (fresh weight growth control rate), Amaranthus retroflexus (Amaranthus retroflexus; 60 g a.i./ha) | activity level (fresh weight growth control rate), Digitaria sanguinalis (Digitaria sanguinalis; 60 g a.i./ha) | activity level (fresh weight growth control rate), Echinochloa crus-galli (Echinochloa crus-galli; 60 g a.i./ha) | activity level (fresh weight growth control rate), Setaria viridis (Setaria viridis; 60 g a.i./ha) | activity level (fresh weight growth control rate), Veronica polita (Veronica polita; 60 g a.i./ha)

CCOC(=O)C1(C)ON=C(c2cc(-c3ncc(Cl)cc3F)c(F)cc2Cl)O1 (stereo not drawn) [Compound 31]
10: activity level (fresh weight growth control rate), Abutilon theophrasti (Abutilon theophrasti; 60 g a.i./ha) | activity level (fresh weight growth control rate), Amaranthus retroflexus (Amaranthus retroflexus; 60 g a.i./ha) | activity level (fresh weight growth control rate), Digitaria sanguinalis (Digitaria sanguinalis; 60 g a.i./ha) | activity level (fresh weight growth control rate), Echinochloa crus-galli (Echinochloa crus-galli; 60 g a.i./ha) | activity level (fresh weight growth control rate), Setaria viridis (Setaria viridis; 60 g a.i./ha) | activity level (fresh weight growth control rate), Veronica polita (Veronica polita; 60 g a.i./ha)

CCOC(=O)C1(C)ON=C(c2cc(-c3ncc(C)cc3F)c(F)cc2Cl)O1 (stereo not drawn) [Compound 32]
10: activity level (fresh weight growth control rate), Abutilon theophrasti (Abutilon theophrasti; 60 g a.i./ha) | activity level (fresh weight growth control rate), Amaranthus retroflexus (Amaranthus retroflexus; 60 g a.i./ha) | activity level (fresh weight growth control rate), Digitaria sanguinalis (Digitaria sanguinalis; 60 g a.i./ha) | activity level (fresh weight growth control rate), Echinochloa crus-galli (Echinochloa crus-galli; 60 g a.i./ha) | activity level (fresh weight growth control rate), Setaria viridis (Setaria viridis; 60 g a.i./ha) | activity level (fresh weight growth control rate), Veronica polita (Veronica polita; 60 g a.i./ha)

CCOC(=O)C1(C)ON=C(c2cc(-c3ncc(C(F)(F)F)cc3OC)c(F)cc2Cl)O1 (stereo not drawn) [Compound 33]
10: activity level (fresh weight growth control rate), Abutilon theophrasti (Abutilon theophrasti; 60 g a.i./ha) | activity level (fresh weight growth control rate), Amaranthus retroflexus (Amaranthus retroflexus; 60 g a.i./ha) | activity level (fresh weight growth control rate), Digitaria sanguinalis (Digitaria sanguinalis; 60 g a.i./ha) | activity level (fresh weight growth control rate), Echinochloa crus-galli (Echinochloa crus-galli; 60 g a.i./ha) | activity level (fresh weight growth control rate), Setaria viridis (Setaria viridis; 60 g a.i./ha) | activity level (fresh weight growth control rate), Veronica polita (Veronica polita; 60 g a.i./ha)

CCOC(=O)C1(C)ON=C(c2cc(-c3ncc(C(F)(F)F)cc3F)c(F)cc2Cl)O1 (stereo not drawn) [Compound 34]
10: activity level (fresh weight growth control rate), Abutilon theophrasti (Abutilon theophrasti; 60 g a.i./ha) | activity level (fresh weight growth control rate), Amaranthus retroflexus (Amaranthus retroflexus; 60 g a.i./ha) | activity level (fresh weight growth control rate), Digitaria sanguinalis (Digitaria sanguinalis; 60 g a.i./ha) | activity level (fresh weight growth control rate), Echinochloa crus-galli (Echinochloa crus-galli; 60 g a.i./ha) | activity level (fresh weight growth control rate), Setaria viridis (Setaria viridis; 60 g a.i./ha) | activity level (fresh weight growth control rate), Veronica polita (Veronica polita; 60 g a.i./ha)

CCOC(=O)C1(C)ON=C(c2cc(-c3ncc(F)cc3Cl)c(F)cc2Cl)O1 (stereo not drawn) [Compound 35]
10: activity level (fresh weight growth control rate), Abutilon theophrasti (Abutilon theophrasti; 60 g a.i./ha) | activity level (fresh weight growth control rate), Amaranthus retroflexus (Amaranthus retroflexus; 60 g a.i./ha) | activity level (fresh weight growth control rate), Digitaria sanguinalis (Digitaria sanguinalis; 60 g a.i./ha) | activity level (fresh weight growth control rate), Echinochloa crus-galli (Echinochloa crus-galli; 60 g a.i./ha) | activity level (fresh weight growth control rate), Setaria viridis (Setaria viridis; 60 g a.i./ha) | activity level (fresh weight growth control rate), Veronica polita (Veronica polita; 60 g a.i./ha)

CCOC(=O)C1(C)ON=C(c2cc(-c3ncc(C(F)(F)F)cc3Cl)c(F)cc2Cl)O1 (stereo not drawn) [Compound 39]
10: activity level (fresh weight growth control rate), Abutilon theophrasti (Abutilon theophrasti; 15 g a.i./ha) | activity level (fresh weight growth control rate), Amaranthus retroflexus (Amaranthus retroflexus; 15 g a.i./ha) | activity level (fresh weight growth control rate), Digitaria sanguinalis (Digitaria sanguinalis; 15 g a.i./ha) | activity level (fresh weight growth control rate), Echinochloa crus-galli (Echinochloa crus-galli; 15 g a.i./ha) | activity level (fresh weight growth control rate), Setaria viridis (Setaria viridis; 15 g a.i./ha) | activity level (fresh weight growth control rate), Veronica polita (Veronica polita; 15 g a.i./ha)

CCOC(=O)C1(C)ON=C(c2cc(-c3ncc(Cl)cc3Cl)c(F)cc2Cl)O1 (stereo not drawn) [Compound 40]
10: activity level (fresh weight growth control rate), Abutilon theophrasti (Abutilon theophrasti; 60 g a.i./ha) | activity level (fresh weight growth control rate), Amaranthus retroflexus (Amaranthus retroflexus; 60 g a.i./ha) | activity level (fresh weight growth control rate), Digitaria sanguinalis (Digitaria sanguinalis; 60 g a.i./ha) | activity level (fresh weight growth control rate), Echinochloa crus-galli (Echinochloa crus-galli; 60 g a.i./ha) | activity level (fresh weight growth control rate), Setaria viridis (Setaria viridis; 60 g a.i./ha) | activity level (fresh weight growth control rate), Veronica polita (Veronica polita; 60 g a.i./ha)

CCOC(=O)C1(C)ON=C(c2cc(-c3ncc(C(F)(F)F)cc3Cl)c(F)cc2C(F)(F)F)O1 (stereo not drawn) [Compound 54]
10: activity level (fresh weight growth control rate), Abutilon theophrasti (Abutilon theophrasti; 60 g a.i./ha) | activity level (fresh weight growth control rate), Amaranthus retroflexus (Amaranthus retroflexus; 60 g a.i./ha) | activity level (fresh weight growth control rate), Digitaria sanguinalis (Digitaria sanguinalis; 60 g a.i./ha) | activity level (fresh weight growth control rate), Echinochloa crus-galli (Echinochloa crus-galli; 60 g a.i./ha) | activity level (fresh weight growth control rate), Setaria viridis (Setaria viridis; 60 g a.i./ha) | activity level (fresh weight growth control rate), Veronica polita (Veronica polita; 60 g a.i./ha)

CCOC(=O)C1(C)ON=C(c2cc(-c3ncc(C(F)(F)F)cc3Cl)c(F)cc2C#N)O1 (stereo not drawn) [Compound 56]
10: activity level (fresh weight growth control rate), Abutilon theophrasti (Abutilon theophrasti; 60 g a.i./ha) | activity level (fresh weight growth control rate), Amaranthus retroflexus (Amaranthus retroflexus; 60 g a.i./ha) | activity level (fresh weight growth control rate), Digitaria sanguinalis (Digitaria sanguinalis; 60 g a.i./ha) | activity level (fresh weight growth control rate), Echinochloa crus-galli (Echinochloa crus-galli; 60 g a.i./ha) | activity level (fresh weight growth control rate), Setaria viridis (Setaria viridis; 60 g a.i./ha) | activity level (fresh weight growth control rate), Veronica polita (Veronica polita; 60 g a.i./ha)

CCOC(=O)C1(CC)ON=C(c2cc(-c3ncc(C(F)(F)F)cc3F)c(F)cc2Cl)O1 (stereo not drawn) [Compound 58]
10: activity level (fresh weight growth control rate), Abutilon theophrasti (Abutilon theophrasti; 60 g a.i./ha) | activity level (fresh weight growth control rate), Amaranthus retroflexus (Amaranthus retroflexus; 60 g a.i./ha) | activity level (fresh weight growth control rate), Digitaria sanguinalis (Digitaria sanguinalis; 60 g a.i./ha) | activity level (fresh weight growth control rate), Echinochloa crus-galli (Echinochloa crus-galli; 60 g a.i./ha) | activity level (fresh weight growth control rate), Setaria viridis (Setaria viridis; 60 g a.i./ha) | activity level (fresh weight growth control rate), Veronica polita (Veronica polita; 60 g a.i./ha)
